{"source": "patent US7405038B1", "about": "“Stable cell lines resistant to apoptosis and nutrient stress and methods of making same” (Boyce Thompson Institute for Plant Research, Inc., priority 2000, dated 2008)", "key": {"Sf9 cells": {"system": "Sf9 cells", "assay": "Resistance to induction of apoptosis by actinomycin D: cell survival", "format": "cell-based, Spodoptera frugiperda", "method": "(§1) The cells were examined for resistance to induction of apoptosis by actinomycin D, as well as survival under conditions of nutrient deprivation. Sf9 cells or stably transfected lines Sf9^P35AcV5−1 and Sf9^P35AcV5−3 were incubated in medium containing 0.1 μg/ml actinomycin D for 1 hour, then placed in TNMFH medium.\n(§2) Increasing doses of actinomycin D were tested to further examine the degree of resistance to this inducer of apoptosis. Sf9 or stably transfected cells expressing P35 were incubated in a range of concentrations of actinomycin D (0.01 to 0.5 μg/ml) for one hour, then placed in TNMFH and scored for cell survival after 1-4 days (Table 2)."}, "Sf9P35AcV5-3 cells": {"system": "Sf9P35AcV5-3 cells", "assay": "Resistance to induction of apoptosis by actinomycin D: cell survival", "format": "cell-based, Spodoptera frugiperda", "method": "as §1, §2"}, "[1]": {"conditions": "0.01 μg/ml actinomycin D for one hour, Day 1"}, "[2]": {"conditions": "0.01 μg/ml actinomycin D for one hour, Day 2"}, "[3]": {"conditions": "0.01 μg/ml actinomycin D for one hour, Day 3"}, "[4]": {"conditions": "0.01 μg/ml actinomycin D for one hour, Day 4"}, "[5]": {"conditions": "0.025 μg/ml actinomycin D for one hour, Day 1"}, "[6]": {"conditions": "0.025 μg/ml actinomycin D for one hour, Day 2"}, "[7]": {"conditions": "0.025 μg/ml actinomycin D for one hour, Day 3"}, "[8]": {"conditions": "0.025 μg/ml actinomycin D for one hour, Day 4"}, "[9]": {"conditions": "0.05 μg/ml actinomycin D for one hour, Day 1"}, "[10]": {"conditions": "0.05 μg/ml actinomycin D for one hour, Day 2"}, "[11]": {"conditions": "0.05 μg/ml actinomycin D for one hour, Day 3"}, "[12]": {"conditions": "0.05 μg/ml actinomycin D for one hour, Day 4"}, "[13]": {"conditions": "0.075 μg/ml actinomycin D for one hour, Day 1"}, "[14]": {"conditions": "0.075 μg/ml actinomycin D for one hour, Day 2"}, "[15]": {"conditions": "0.075 μg/ml actinomycin D for one hour, Day 3"}, "[16]": {"conditions": "0.075 μg/ml actinomycin D for one hour, Day 4"}, "[17]": {"conditions": "0.1 μg/ml actinomycin D for 1 hour, then TNMFH medium, after three days"}, "[18]": {"conditions": "0.1 μg/ml actinomycin D for one hour, Day 1"}}, "note": "Numbered stars: 1 amine (or outer) side, 2 acyl side, 3 side chain; on linkers, the order of the positions; unused ones are H or OH. Bridge positions count the residues as written; N and C are the ends. Square brackets hold non-standard residues; d marks the D form. Peptide text beside a SMILES is read from it. I, II: the chains in the order shown. Actinocin(9to1) = Cc1c2oc3c(C)ccc(C(=O)[*:1])c3nc-2c(C(=O)[*:2])c(N)c1=O; NMeV = CN[C@H](C(=O)O)C(C)C; Sar = CNCC(=O)O", "data": [{"smiles": "Cc1c2oc3c(C)ccc(C(=O)N[C@@H]4C(=O)N[C@H](C(C)C)C(=O)N5CCC[C@H]5C(=O)N(C)CC(=O)N(C)[C@@H](C(C)C)C(=O)O[C@@H]4C)c3nc-2c(C(=O)N[C@@H]2C(=O)N[C@H](C(C)C)C(=O)N3CCC[C@H]3C(=O)N(C)CC(=O)N(C)[C@@H](C(C)C)C(=O)O[C@@H]2C)c(N)c1=O", "note": "[Actinomycin D, actinomycin D] (I: T[dV]P[Sar][NMeV] / II: T[dV]P[Sar][NMeV]; ester I:1-I:C, II:1-II:C; linker I:N-II:N via Actinocin(9to1))", "values": [{"measurement": "Sf9 Cell Survival (Percentage)", "setting": "Sf9 cells; [1]", "value": 100, "unit": "Percentage"}, {"measurement": "Sf9 Cell Survival (Percentage)", "setting": "Sf9 cells; [2]", "value": 100, "unit": "Percentage"}, {"measurement": "Sf9 Cell Survival (Percentage)", "setting": "Sf9 cells; [3]", "value": 100, "unit": "Percentage"}, {"measurement": "Sf9 Cell Survival (Percentage)", "setting": "Sf9 cells; [4]", "value": 100, "unit": "Percentage"}, {"measurement": "Sf9 Cell Survival (Percentage)", "setting": "Sf9 cells; [5]", "value": 100, "unit": "Percentage"}, {"measurement": "Sf9 Cell Survival (Percentage)", "setting": "Sf9 cells; [6]", "value": 100, "unit": "Percentage"}, {"measurement": "Sf9 Cell Survival (Percentage)", "setting": "Sf9 cells; [7]", "value": 100, "unit": "Percentage"}, {"measurement": "Sf9 Cell Survival (Percentage)", "setting": "Sf9 cells; [8]", "value": 100, "unit": "Percentage"}, {"measurement": "Sf9 Cell Survival (Percentage)", "setting": "Sf9 cells; [9]", "value": 100, "unit": "Percentage"}, {"measurement": "Sf9 Cell Survival (Percentage)", "setting": "Sf9 cells; [10]", "value": 100, "unit": "Percentage"}, {"measurement": "Sf9 Cell Survival (Percentage)", "setting": "Sf9 cells; [11]", "value": 100, "unit": "Percentage"}, {"measurement": "Sf9 Cell Survival (Percentage)", "setting": "Sf9 cells; [12]", "value": 100, "unit": "Percentage"}, {"measurement": "survival of Sf9 cells", "setting": "Sf9 cells; 0.075 μg/ml actinomycin D", "value": "80-95%"}, {"measurement": "Sf9 Cell Survival (Percentage)", "setting": "Sf9 cells; [13]", "value": 95, "unit": "Percentage"}, {"measurement": "Sf9 Cell Survival (Percentage)", "setting": "Sf9 cells; [14]", "value": 90, "unit": "Percentage"}, {"measurement": "Sf9 Cell Survival (Percentage)", "setting": "Sf9 cells; [15]", "value": 83, "unit": "Percentage"}, {"measurement": "Sf9 Cell Survival (Percentage)", "setting": "Sf9 cells; [16]", "value": 83, "unit": "Percentage"}, {"measurement": "survival of Sf9 cells", "setting": "Sf9 cells; 0.1 μg/ml actinomycin D", "value": "≤ 5", "unit": "%"}, {"measurement": "survival of Sf9 cells", "setting": "Sf9 cells; [17]", "value": "all Sf9 cells died"}, {"measurement": "Sf9 Cell Survival (Percentage)", "setting": "Sf9 cells; [18]", "value": 13.7, "unit": "Percentage"}, {"measurement": "Sf9 Cell Survival (Percentage)", "setting": "Sf9 cells; 0.1 μg/ml actinomycin D for one hour, Day 2", "value": 8.6, "unit": "Percentage"}, {"measurement": "Sf9 Cell Survival (Percentage)", "setting": "Sf9 cells; 0.1 μg/ml actinomycin D for one hour, Day 3", "value": 3.7, "unit": "Percentage"}, {"measurement": "Sf9 Cell Survival (Percentage)", "setting": "Sf9 cells; 0.1 μg/ml actinomycin D for one hour, Day 4", "value": 0, "unit": "Percentage"}, {"measurement": "Sf9 Cell Survival (Percentage)", "setting": "Sf9 cells; 0.25 μg/ml actinomycin D for one hour, Day 1", "value": 4.5, "unit": "Percentage"}, {"measurement": "Sf9 Cell Survival (Percentage)", "setting": "Sf9 cells; 0.25 μg/ml actinomycin D for one hour, Day 2", "value": 3.6, "unit": "Percentage"}, {"measurement": "Sf9 Cell Survival (Percentage)", "setting": "Sf9 cells; 0.25 μg/ml actinomycin D for one hour, Day 3", "value": 0, "unit": "Percentage"}, {"measurement": "Sf9 Cell Survival (Percentage)", "setting": "Sf9 cells; 0.25 μg/ml actinomycin D for one hour, Day 4", "value": 0, "unit": "Percentage"}, {"measurement": "Sf9 Cell Survival (Percentage)", "setting": "Sf9 cells; 0.5 μg/ml actinomycin D for one hour, Day 1", "value": 0, "unit": "Percentage"}, {"measurement": "Sf9 Cell Survival (Percentage)", "setting": "Sf9 cells; 0.5 μg/ml actinomycin D for one hour, Day 2", "value": 0, "unit": "Percentage"}, {"measurement": "Sf9 Cell Survival (Percentage)", "setting": "Sf9 cells; 0.5 μg/ml actinomycin D for one hour, Day 3", "value": 0, "unit": "Percentage"}, {"measurement": "Sf9 Cell Survival (Percentage)", "setting": "Sf9 cells; 0.5 μg/ml actinomycin D for one hour, Day 4", "value": 0, "unit": "Percentage"}, {"measurement": "Sf9P35AcV5-3 Cell Survival (Percentage)", "setting": "Sf9P35AcV5-3 cells; [1]", "value": 100, "unit": "Percentage"}, {"measurement": "Sf9P35AcV5-3 Cell Survival (Percentage)", "setting": "Sf9P35AcV5-3 cells; [2]", "value": 100, "unit": "Percentage"}, {"measurement": "Sf9P35AcV5-3 Cell Survival (Percentage)", "setting": "Sf9P35AcV5-3 cells; [3]", "value": 100, "unit": "Percentage"}, {"measurement": "Sf9P35AcV5-3 Cell Survival (Percentage)", "setting": "Sf9P35AcV5-3 cells; [4]", "value": 100, "unit": "Percentage"}, {"measurement": "Sf9P35AcV5-3 Cell Survival (Percentage)", "setting": "Sf9P35AcV5-3 cells; [5]", "value": 100, "unit": "Percentage"}, {"measurement": "Sf9P35AcV5-3 Cell Survival (Percentage)", "setting": "Sf9P35AcV5-3 cells; [6]", "value": 100, "unit": "Percentage"}, {"measurement": "Sf9P35AcV5-3 Cell Survival (Percentage)", "setting": "Sf9P35AcV5-3 cells; [7]", "value": 100, "unit": "Percentage"}, {"measurement": "Sf9P35AcV5-3 Cell Survival (Percentage)", "setting": "Sf9P35AcV5-3 cells; [8]", "value": 100, "unit": "Percentage"}, {"measurement": "Sf9P35AcV5-3 Cell Survival (Percentage)", "setting": "Sf9P35AcV5-3 cells; [9]", "value": 100, "unit": "Percentage"}, {"measurement": "Sf9P35AcV5-3 Cell Survival (Percentage)", "setting": "Sf9P35AcV5-3 cells; [10]", "value": 100, "unit": "Percentage"}, {"measurement": "Sf9P35AcV5-3 Cell Survival (Percentage)", "setting": "Sf9P35AcV5-3 cells; [11]", "value": 100, "unit": "Percentage"}, {"measurement": "Sf9P35AcV5-3 Cell Survival (Percentage)", "setting": "Sf9P35AcV5-3 cells; [12]", "value": 100, "unit": "Percentage"}, {"measurement": "Sf9P35AcV5-3 Cell Survival (Percentage)", "setting": "Sf9P35AcV5-3 cells; [13]", "value": 100, "unit": "Percentage"}, {"measurement": "Sf9P35AcV5-3 Cell Survival (Percentage)", "setting": "Sf9P35AcV5-3 cells; [14]", "value": 100, "unit": "Percentage"}, {"measurement": "Sf9P35AcV5-3 Cell Survival (Percentage)", "setting": "Sf9P35AcV5-3 cells; [15]", "value": 100, "unit": "Percentage"}, {"measurement": "Sf9P35AcV5-3 Cell Survival (Percentage)", "setting": "Sf9P35AcV5-3 cells; [16]", "value": 100, "unit": "Percentage"}, {"measurement": "survival of Sf9P35AcV5-3 cells", "setting": "Sf9P35AcV5-3 cells; [17]", "value": "survived"}, {"measurement": "Sf9P35AcV5-3 Cell Survival (Percentage)", "setting": "Sf9P35AcV5-3 cells; [18]", "value": 100, "unit": "Percentage"}]}]}
